# Marks after values point to notes of the source that are not given here.
# Legend:
# [1] = tested on: papain-induced OA model in rabbit; assay: GAG content in knee joint cartilage, papain-induced OA model in rabbit (azure A method); format: in vivo; design: unit not given here; conditions: n = 6, x ± s
# Protocol: (§1) 30 rabbits were randomly divided into five groups, i.e., normal control group; normal saline (NS) injection group; hyaluronic acid (HA) oral administration group; hyaluronic acid (HA) injection group; and hyaluronic acid-phospholipid complex (HA-PL, the complex of Preparation Example 2) oral administration group.
# (§2) Using the papain-induced OA model in rabbit, the latter four groups of rabbits received injection of 0.1 ml of a papain solution (1.8 mg papain and 50 mg cysteine hydrochloride in 1 ml normal saline, sterile filtered through a 0.22 μm filter membrane) into the right knee articular cavity. A second injection was performed 3 days later.
# Starting on Day 7 post-modeling, the rabbits were dosed. […] For oral administration, the respective agent was given intragastrically every day, at a dosage 40 mg/kg body weight, calculated as hyaluronic acid, in a volume of 1 ml/100 g body weight, for 2 weeks.
# (§3) After completion of the administration, synovial fluid was aspirated, and the rabbits were sacrificed. […] The total amount of GAG in the cartilage was determined by the azure A method, and the level of HA in the synovial fluid was determined using an HA RIA kit.
# The content of GAG in samples from each group was expressed as the amount contained in every 1 mg wet weight of the cartilage ( x±s), and was analyzed by t-test for significance test.
# [2] = tested on: papain-induced OA model in rabbit; assay: HA content in knee joint synovial fluid, papain-induced OA model in rabbit (HA RIA kit); format: in vivo; conditions: n = 6, x ± s
# Protocol: as §1, §2
# Starting on Day 7 post-modeling, the rabbits were dosed. For administration by injection into joint cavity, a injection volume of 0.3 ml, and a hyaluronic acid concentration of 10 mg/ml were used, once every five days for a total of 3 injections during the test. For oral administration, the respective agent was given intragastrically every day, at a dosage 40 mg/kg body weight, calculated as hyaluronic acid, in a volume of 1 ml/100 g body weight, for 2 weeks.
# as §3
# [3] = injection into joint cavity, 0.3 ml of 10 mg/ml, once every five days, 3 injections
# [4] = oral (intragastric) daily, 40 mg/kg calculated as hyaluronic acid, 2 weeks
substance,measurement,setting,value
hyaluronic acid [HA],GAG Content in knee joint cartilages,[1]; [3],"29.9 ± 4.4^1),2) ng · ml^−1"
same,GAG Content in knee joint cartilages,[1]; [4],23.3 ± 4.2
same,HA content in knee joint synovial fluid,[2]; [3],4.64 ± 0.51^1) mg · ml^−1
same,HA content in knee joint synovial fluid,[2]; [4],4.65 ± 0.54^1) mg · ml^−1

# — patent publication US20090170808A1, “ORAL AGENT FOR IMPROVING AND PROTECTING THE FUNCTION OF JOINT COMPRISING HYALURONIC ACID-PHOSPHOLIPID COMPLEXES” (priority 2005, published 2009)
